Test results reported in patent EP3628672A1 (priority 2018, dated 2020).

How the values were obtained:
[1] = target: T1, purified LasB protein from P. aeruginosa (Pseudomonas aeruginosa, UniProt P14756); assay: Fluorometric assay to determine Ki (Abz-Ala-Gly-Leu-Ala-p-Nitro-Benzyl-Amide substrate); assay type: biochemical
T1 construct: purchased Merck or Charles River Laboratories
Procedure, shortened: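 Purified P. aeruginosa LasB (10–140 ng/ml) with 250 µM Abz-Ala-Gly-Leu-Ala-p-nitrobenzylamide in 50 mM Tris-HCl pH 7.4, 2.5 mM CaCl2, 0.01% Triton X100, 37 °C; hydrolysis fluorescence (Ex 340/Em 415 nm) followed over 30 min, inhibitor 0.0016–200 µM. Ki = IC50/(1+[S]/Km), Km 214 µM.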

LasB = target: T2, LasB (Pseudomonas aeruginosa, UniProt P14756); assay: Elastin assay to determine % inhibition (Elastin Congo-Red, dialysed culture supernatant); assay type: biochemical, P. aeruginosa PAO1; details: read-out: Elastin hydrolysis % inhibition @ 50 / 25 µM inhibitor concentration
T2 construct: uses as source of enzyme dialysed supernatant from P. aeruginosa PAO1; endogenous in cells; host or cells: P. aeruginosa PAO1 culture supernatant, filtered and dialysed
Experimental: Experiments were therefore conducted (1) to measure the potency of inhibition of compounds of the invention against purified Pseudomonas aeruginosa LasB enzyme and also experiments were conducted (2) to measure the ability of compounds of the invention to inhibit LasB-catalysed elastin degradation. The first assay uses a commercial fluorescent synthetic peptide and purified LasB enzyme. The LasB hydrolysis kinetics are measured allowing the determination of the IC50 and Ki of the inhibitors; the second is a more physiological assay using dialysed Pseudomonas aeruginosa supernatant as source of enzyme, plus its natural substrate Elastin. It is an "end point assay" that determines the percentage of LasB inhibition by each compound for one particular time point and inhibitor concentration. Technical details are described below:
The Elastin assay uses as source of enzyme dialysed supernatant from P. aeruginosa PAO1 and the Elastin Congo-Red as substrate. The natural LasB substrate, elastin, is complexed with the congo-red dye (Elastin Congo-Red, ECR). The elastolysis activity from the culture supernatant will degrade elastin and release the congo-red dye into the supernatant. This red dye release can be measured with a spectrophotometer.
Method: To determine LasB elastase activity and assess compound inhibition, an overnight culture of P. aeruginosa strain PAO1 is diluted in LB medium. After reaching an OD600nm of 0.6, this culture is diluted and incubated for additional 18-24 hours in a shaking incubator. Culture supernatants are recovered by centrifugation and filtrated through a […] filter. These supernatants are dialysed (filtration molecules < 20kDa) into a 50 mM Tris-HCl pH 7.4, 2.5 mM CaCl2 solution at 4°C under agitation for 24 hours. Supernatant dialysed is then mixed volume/volume with the ECR suspension (20 mg/mL of ECR in 100 mM Tris-HCl pH 7.4 buffer supplemented with 1 mM CaCl2) supplemented with Triton X100 (final concentration of 0.01%) in presence of DMSO (positive control) and/or different concentrations of compound (routinely 50 to 1.56 µM). As a negative control, the dialysed supernatant is replaced by Tris-HCl solution (50 mM Tris-HCl pH 7.4, 2.5 mM CaCl2). The mixed reaction is then incubated overnight in a 37°C shaking incubator. The reaction supernatant is recovered by centrifugation and the release of congo-red is measured by its absorbance at 495 nm (OD495nm).
Percentage inhibition is determined using the following equation: ((OD495nmvalue of positive control−OD495nmvalue of negative control)−(OD495nmvalue of treated supernatant−OD495nmvalue of positive control))/(OD495nmvalue of positive control−OD495nmvalue of negative control) × 100. [formula]

T2 sequence (P14756 198-498): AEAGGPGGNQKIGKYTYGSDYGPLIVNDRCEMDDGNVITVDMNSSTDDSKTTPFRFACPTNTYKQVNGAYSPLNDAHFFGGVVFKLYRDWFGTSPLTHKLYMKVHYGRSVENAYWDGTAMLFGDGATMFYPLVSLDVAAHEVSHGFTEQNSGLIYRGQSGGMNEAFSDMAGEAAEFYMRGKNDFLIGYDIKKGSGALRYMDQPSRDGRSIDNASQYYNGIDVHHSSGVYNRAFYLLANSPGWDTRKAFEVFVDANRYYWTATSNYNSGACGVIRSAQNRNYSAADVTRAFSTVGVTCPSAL
T1 sequence (P14756 198-498): as above

SMILES | Ki [1] [nM] | inhibition at 25 µM (LasB) [%]
COc1cc(OCC(=O)N2CCN(C)CC2)ccc1-c1csc(CNC(=O)C2(CC(=O)O)Cc3ccccc3C2)n1 [Example 63, 2-[2-[[4-[2-methoxy-4-[2-(4-methylpiperazin-1-yl)-2-oxo-ethoxy]phenyl]thiazol-2-yl]methylcarbamoyl]indan-2-yl]acetic acid] | 50 to 200 | > 75
COc1cc(OCC(=O)N2CC([N+](C)(C)C)C2)ccc1-c1csc(CNC(=O)C2(CC(=O)[O-])Cc3cc(F)c(F)cc3C2)n1 [Example 64, 2-[5,6-difluoro-2-[[4-[2-methoxy-4-[2-oxo-2-[3-(trimethylammonio)azetidin-1-yl]ethoxy]phenyl]thiazol-2-yl]methylcarbamoyl]indan-2-yl]acetate] | 50 to 200 | 60 to 75
COc1cc(OCC[N+]2(C)CCOCC2)ccc1-c1csc(CNC(=O)C2(CC(=O)[O-])Cc3ccccc3C2)n1 [Example 67, 2-[2-[[4-[2-methoxy-4-[2-(4-methylmorpholin-4-ium-4-yl)ethoxy]phenyl]thiazol-2-yl]methylcarbamoyl]indan-2-yl] acetate] | 50 to 200 | 60 to 75
COc1cc(OCC[N+]2(C)CCOCC2)ccc1-c1csc(CNC(=O)C2(CC(=O)[O-])Cc3cc(F)c(F)cc3C2)n1 [Example 68, 2-[5,6-difluoro-2-[[4-[2-methoxy-4-[2-(4-methylmorpholin-4-ium-4-yl)ethoxy]phenyl]thiazol-2-yl]methylcarbamoyl]indan-2-yl]acetate] | 50 to 200 | 60 to 75
COc1cc(OCCC[N+]2(C)CCOCC2)ccc1-c1csc(CNC(=O)C2(CC(=O)[O-])Cc3ccccc3C2)n1 [Example 69, 2-[2-[[4-[2-methoxy-4-[3-(4-methylmorpholin-4-ium-4-yl)propoxy]phenyl]thiazol-2-yl]methylcarbamoyl]indan-2-yl]acetate] | 50 to 200 | 10 to 60
COc1cc(OCCC[N+]2(C)CCOCC2)ccc1-c1csc(CNC(=O)C2(CC(=O)[O-])Cc3cc(F)c(F)cc3C2)n1 [Example 70, 2-[5,6-difluoro-2-[[4-[2-methoxy-4-[3-(4-methylmorpholin-4-ium-4-yl)propoxy]phenyl]thiazol-2-yl]methylcarbamoyl]indan-2-yl]acetate] | 50 to 200 | 60 to 75
COc1cc(OCCCN2CCOCC2)ccc1-c1csc(CNC(=O)C2(CC(=O)O)Cc3ccccc3C2)n1 [Example 71, 2-[2-[[4-[2-methoxy-4-(3-morpholinopropoxy)phenyl]thiazol-2-yl]methylcarbamoyl]indan-2-yl]acetic acid] | < 50 | > 75
COc1cc(OCCCN2CCCC2)ccc1-c1csc(CNC(=O)C2(CC(=O)O)Cc3cc(F)c(F)cc3C2)n1 [Example 72, 2-[5,6-difluoro-2-[[4-[2-methoxy-4-(3-pyrrolidin-1-ylpropoxy)phenyl]thiazol-2-yl]methylcarbamoyl]indan-2-yl]acetic acid] | < 50 | 10 to 60
COc1cc(OCCC[N+]2(C)CCCC2)ccc1-c1csc(CNC(=O)C2(CC(=O)[O-])Cc3cc(F)c(F)cc3C2)n1 [Example 73, 2-[5,6-difluoro-2-[[4-[2-methoxy-4-[3-(1-methylpyrrolidin-1-ium-1-yl)propoxy]phenyl]thiazol-2-yl]methylcarbamoyl]indan-2-yl)acetate] | 50 to 200 | 60 to 75
COc1cc(OCc2ccncc2)ccc1-c1csc(CNC(=O)C2(CC(=O)O)Cc3ccccc3C2)n1 [Example 74, 2-[2-[[4-[2-methoxy-4-(4-pyridylmethoxy)phenyl]thiazol-2-yl]methylcarbamoyl]indan-2-yl]acetic acid] | < 50 | > 75
COc1cc(OCc2cc[n+](C)cc2)ccc1-c1csc(CNC(=O)C2(CC(=O)[O-])Cc3ccccc3C2)n1 [Example 75, 2-[2-[[4-[2-methoxy-4-[(1-methylpyridin-1-ium-4-yl)methoxy]phenyl]thiazol-2-yl]methylcarbamoyl]indan-2-yl]acetate] | 50 to 200 | 60 to 75
